Data on four compounds can be found in patent US20060035938A1, “2-Pyridone derivatives as inhibitors of neutrophile elastase” (priority 2002, published 2006).

The term IC50 denotes the point on the concentration scale where inhibition reaches its midpoint.

The assay concerns the target T1, Human Neutrophil Elastase (HNE) (Homo sapiens, UniProt P08246).
T1 construct: Human Neutrophil Elastase (HNE) purified from serum; purchased Calbiochem 324681; host or cells: purified from human serum (so in the source); not recombinant
T1 sequence (P08246 30-267): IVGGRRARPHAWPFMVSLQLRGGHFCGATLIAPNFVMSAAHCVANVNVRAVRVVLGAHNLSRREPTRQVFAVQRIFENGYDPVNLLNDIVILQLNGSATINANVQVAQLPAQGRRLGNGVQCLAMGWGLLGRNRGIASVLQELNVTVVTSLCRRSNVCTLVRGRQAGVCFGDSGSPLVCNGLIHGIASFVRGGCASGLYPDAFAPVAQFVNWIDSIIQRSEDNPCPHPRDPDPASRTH
Briefly: Human Neutrophil Elastase Quenched-FRET Assay. As to conditions: read-out: Inhibition of Human Neutrophil Elastase IC50. It counts as biochemical. As to the method:
Human Neutrophil Elastase Quenched-FRET Assay
The assay uses Human Neutrophil Elastase (HNE) purified from serum (Calbiochem art. 324681; Ref. Baugh, R J. et al., 1976, Biochemistry. 15, 836-841). HNB was stored in 50 mM NaOAc, 200 mM NaCl, pH 5.5 with added 30% glycerol at −20° C. The protease substrate used was Elastase Substrate V Fluorogenic, MeOSuc-AAPV-AMC (Calbiochem art. 324740; Ref. Castillo, M. J. et al., 1979, Anal. Biochem. 99, 53-64). The substrate was stored in DMSO at −20° C. The assay additions were as follows: Test compounds and controls were added to black 96-well flat-bottom plates (Greiner 655076), 1 μL in 100% DMSO, followed by 30 μL HNE in assay buffer with 0.01% TritonX-100. The assay buffer constitution was: 100 mM Tris (pH 7.5) and 500 mM NaCl. The enzyme and the compounds were incubated at room temperature for 15 minutes. Then 30 μl substrate in assay buffer was added The assay was stopped after 30 minutes incubation at room temperature by adding 60 μl stop solution (140 mM acetic acid, 200 mM sodium monochloroacetate, 60 mM sodium acetate, pH 4.3). Fluorescence was measured on a Wallac 1420 Victor 2 instrument at settings: Exitation 380 nm, Emission 460 nm. IC50 values were determined using xlfit curve fitting using model 205.
For the compound `COc1ccc(CNC(=O)c2ccc(C)n(-c3cccc(Br)c3)c2=O)cc1` [1-(3-Bromophenyl)-N-(4-methoxybenzyl)-6-methyl-2-oxo-1,2-dihydropyridine-3-carboxamide], the IC50 is 0.353 µM.

Turning to `Cc1cc(CNC(=O)c2ccc(C)n(-c3cccc(C(F)(F)F)c3)c2=O)no1` [6-Methyl-N-[(5-methylisoxazol-3-yl)methyl]-2-oxo-1-[3-(trifluoromethyl)phenyl]-1,2-dihydropyridine-3-carboxamide], the concentration for half-maximal inhibition (IC50) was 0.318 µM.

Consider `O=C(NCc1ccc2c(c1)CCO2)c1c[nH]c(=O)n(-c2cccc(C(F)(F)F)c2)c1=O` [N-(2,3-Dihydro-1-benzofuran-5-ylmethyl)-2,4-dioxo-3-[3-(trifluoromethyl)phenyl]-1,2,3,4-tetrahydropyrimidine-5-carboxamide], for which the half-inhibitory concentration (IC50) came out at 2.03 µM.

`COc1cccc(CNC(=O)c2ccc(C)n(-c3cccc(C(F)(F)F)c3)c2=O)c1OC` [N-(2,3-Dimethoxybenzyl)-6-methyl-2-oxo-1-[3-(trifluoromethyl)phenyl]-1,2-dihydropyridine-3-carboxamide]: the IC50 is 0.701 µM.
